According to paper PMC11304990, “Identification of mitochondrial ATP synthase as the cellular target of Ru-polypyridyl-β-carboline complexes by affinity-based protein profiling” (National Science Review, 2024):

What was measured:
[1] = target: ATPase (mitochondrial ATP synthase); assay: Inhibition of the enzymatic activity of ATPase in vitro; format: biochemical; conditions: read-out: Inhibition constant (Ki)
Experimental: (§1) Figure 1. Validation of ATP5F1 as the molecular target of Ru5. (A) Proteins pulled down by streptavidin from A549 cells treated with Ru5a followed by PAL. The cells were treated with Ru5a (50 μM) for 12 h and irradiated with UV light for 20 min. (B) The top five peptides enriched by Ru5a-mediated PAL were identified with the assistance of SILAC-based chemoproteomic studies. H1F0: H1 histone family member 0; HIST4H4: histone cluster 4 H4; HIST3H2BB: histone cluster 3 H2B family member b; ATP5F1E: ATP synthase F1 subunit epsilon; HIST1H2AJ: histone cluster 1 H2A family member J. (C) Pull-down western blotting analysis of ATPase in A549 cells treated with Ru5a. (D) Cellular Ru content in cells treated with Ru5/Ru5a (20 μM, 12 h) measured by ICP-MS. (E) Impact of Ru5/Ru5a (10 μM) on the thermal stability of ATP5F1 measured by CETSA. (F) Impact on the anticancer activities of Ru5/Ru5a against wild type and ATPase knocking down (by siRNA) A549 cells. The relative cellular viability was calculated using the cells without drug treatment in each group as the control group. (G) Inhibition of Ru5/Ru5a on the enzymatic activity of ATPase. (-)-blebbistatin was used as the positive control. (H) Molecular docking of Ru5 with ATPase (PDB: 3ZIA). The red dashes indicate the hydrogen bonds formed between Ru5 and the amino acid residues (SER38 and GLN39). The yellow dashes indicate the hydrophobic interaction between Ru5 and the amino acid residues (ASN15 and GLN19). Data are presented as means ± SD from three independent experiments. TEXT PRINTED IN THE PICTURE: (B) Ru5a: Log2 (fold change) (Ru5a/DMSO): 1.43 (Protein name: H1F0); Log2 (fold change) (Ru5a/DMSO): 1.23 (Protein name: HIST4H4); Log2 (fold change) (Ru5a/DMSO): 1.22 (Protein name: HIST3H2BB); Log2 (fold change) (Ru5a/DMSO): 1.21 (Protein name: ATP5F1E); Log2 (fold change) (Ru5a/DMSO): 1.12 (Protein name: HIST1H2AJ) DOUBTS OF THE COPYIST ABOUT THIS PICTURE: Panel B: the table rows are proteins enriched by Ru5a, not separate substances. […]

A549 cells = assay: Anticancer activity in wild type vs ATPase siRNA knockdown cells; format: cell-based, human; conditions: compared to wild-type cells
Experimental: as §1, with “GLN39).” for “GLN39). The yellow dashes indicate the hydrophobic interaction between Ru5 and the amino acid residues (ASN15 and GLN19). Data are presented as means ± SD from three independent experiments. TEXT PRINTED IN THE PICTURE: (B) Ru5a: Log2 (fold change) (Ru5a/DMSO): 1.43 (Protein name: H1F0); Log2 (fold change) (Ru5a/DMSO): 1.23 (Protein name: HIST4H4); Log2 (fold change) (Ru5a/DMSO): 1.22 (Protein name: HIST3H2BB); Log2 (fold change) (Ru5a/DMSO): 1.21 (Protein name: ATP5F1E); Log2 (fold change) (Ru5a/DMSO): 1.12 (Protein name: HIST1H2AJ) DOUBTS OF THE COPYIST ABOUT THIS PICTURE: Panel B: the table rows are proteins enriched by Ru5a, not separate substances.”

[2] = system: cervical carcinoma (HeLa); assay: MTT antiproliferative assay, HeLa; format: cell-based, human; conditions: 72 h
Description: (§2) Ru3–Ru9 also show a certain selectivity for cancer cells over normal cells, and Ru2, Ru3, Ru5 and Ru9 show higher selectivity index (SI) values than the other complexes.
(§3) PA-BPP was then used to confirm the molecular targets of Ru5 by modifying it with a ‘minimalist’ biorthogonal handle-containing photo-cross-linker. Through our structure–activity relationship analysis and comparison with other ruthenium complexes utilizing phen as the auxiliary ligands with similar coordination structures (using cisplatin as a control), we propose that the β-carboline ligands play an important role in antiproliferative activity. To maintain the binding characteristics of the β-carboline moiety with the targeted biomolecules, we linked the photo-cross-linker to one of the auxiliary ligands of Ru5.

[3] = Aqueous solubility by concentration-absorbance linearity; format: physicochemical; conditions: PBS with 1% DMSO
Description: Subsequently, the lipophilicity and aqueous solubility of Ru1–Ru9 were investigated.

[4] = system: cisplatin-resistant A549R; assay: MTT antiproliferative assay, A549R; format: cell-based, human; conditions: 72 h
Description: as §2, §3

[5] = system: triple negative breast cancer (MDA-MB-231); assay: MTT antiproliferative assay, MDA-MB-231; format: cell-based, human; conditions: 72 h
Description: as §2, §3

malignant glioma (U87) = assay: MTT antiproliferative assay, U87; format: cell-based, human; conditions: 72 h
Description: as §2, §3

ATP5F1 = assay: Cellular thermal shift assay (CETSA); format: cell-based; conditions: 10 μM
Experimental: as §1, with “GLN39).” for “GLN39). The yellow dashes indicate the hydrophobic interaction between Ru5 and the amino acid residues (ASN15 and GLN19). Data are presented as means ± SD from three independent experiments. TEXT PRINTED IN THE PICTURE: (B) Ru5a: Log2 (fold change) (Ru5a/DMSO): 1.43 (Protein name: H1F0); Log2 (fold change) (Ru5a/DMSO): 1.23 (Protein name: HIST4H4); Log2 (fold change) (Ru5a/DMSO): 1.22 (Protein name: HIST3H2BB); Log2 (fold change) (Ru5a/DMSO): 1.21 (Protein name: ATP5F1E); Log2 (fold change) (Ru5a/DMSO): 1.12 (Protein name: HIST1H2AJ) DOUBTS OF THE COPYIST ABOUT THIS PICTURE: Panel B: the table rows are proteins enriched by Ru5a, not separate substances.”

[6] = system: lung adenocarcinoma (A549); assay: MTT antiproliferative assay, A549; format: cell-based, human; conditions: 72 h
Description: as §2, §3

A549 xenograft = A549 xenograft nude mice model; format: in vivo
Experimental: Lastly, the in vivo anticancer activity of Ru5 was assessed via a A549 xenograft nude mice model (Fig. 5A). Mice were treated with PBS, cisplatin (5 mg kg^−1) or Ru5 (5 mg kg^−1) for 14 days, during which body weights and tumor volumes were monitored.
Figure 5. […] (A) Schematic illustration of in vivo therapeutic protocol. (B) Graphs of tumor volumes of nude mice after treatment with Ru5 (5 mg kg^−1), cisplatin (5 mg kg^−1) and PBS. The intratumoral injections were performed every 7 days. Data are presented as means ± SD, n = 5. (C) Immunohistochemical analysis of hematoxylin-eosin (H&E) staining in tumor sections from mice with different treatments. Scale bar: 50 μm. (D) Tumors separated from nude mice. (E) The average body weight of the mice in each group during the treatment process. Data are presented as means ± SD, n = 5. (F) H&E staining of the main organs from mice with different treatments. Scale bar: 100 μm.

- Ki [1]: 6.2 ± 1.4 µM
- IC50 [2]: 3.1 ± 0.7 µM
- Linear relationship between absorbance and concentration up to [3]: at least 100 μM
- IC50 [4]: 3.3 ± 0.7 µM
- IC50 [5]: 7.7 ± 0.2 µM
- IC50 (malignant glioma (U87)): 14.7 ± 0.7 µM
- IC50 [6]: 2.1 ± 0.8 µM
Structure (SMILES): F[P-](F)(F)(F)(F)F.F[P-](F)(F)(F)(F)F.[Ru+2].c1ccc2c(c1)[nH]c1c(-c3ncc[nH]3)nccc12.c1cnc2c(c1)ccc1cccnc12.c1cnc2c(c1)ccc1cccnc12 [Ru5]
- Effect of siRNA-mediated knockdown of ATPase on anticancer effects (A549 cells): alleviates
- Thermal stability of ATP5F1 (ATP5F1): increased
- Body weight loss (A549 xenograft; 5 mg kg−1, 14 days): no significant body weight loss
- Organ damage (H&E staining of the main organs) (A549 xenograft; 5 mg kg−1, 14 days): no significant
- Tumor inhibition compared with cisplatin and PBS (A549 xenograft; 5 mg kg−1, 14 days): better tumor inhibition
- Tumor growth inhibitory rate (A549 xenograft; 5 mg kg−1, intratumoral injection every 7 days, 14 days, compared with the control groups): ~89.6%
